Assay [1] has as its target ATR (Homo sapiens, UniProt Q13535). Conditions: cited from earlier work.
Assay [2] relates to human zygotes. Nature of the assay: DNA damage foci immunostaining in human zygotes/parthenotes. The assay is classed as cell-based. As to the method:
(§1) Embryos, mouse and human, were cultured in Global Total (Life-Global) for the duration of the experiments and with added compounds as outlined below. Incubation in RNA polymerase inhibitors triptolide (1 mM) or alpha amanitin (20 mg/ml) was performed from the 2PN stage (day1) to day3 of human development. Incubation in aphidicolin was performed at 2 mM. […] Mirin was used at a concentration of 50 mM. Olaparib was used to inhibit PARP at a concentration of 10 mM. All experiments were conducted during incubation at 37° C. with 5% CO2 and 19-20% O2. Chemical stock solutions were prepared in DMSO at concentrations at least 1000× higher than the final concentration.
Artificial activation of human MII oocytes was performed using two pulses of 2.7 kV/cm at 50 ms using ECFG21 (Nepagene) in fusion buffer consisting of 0.25 M d-sorbitol buffer containing 0.1 mM calcium acetate, 0.5 mM magnesium acetate, 0.5 mM HEPES, and 1 mg ml^−1 fatty-acid-free BSA as previously described (Tachibana et al., 2013). Thereafter, oocytes were incubated for 3.5-4 h in 10 mg/ml puromycin, followed by a wash step and following culture in Global total.
(§2) Following the experimental exposures, mouse and human embryos were fixed in 2% paraformaldehyde (PFA) and 0.25% Triton X-100 in PBS for 10 minutes at room temperature, serially washed in phosphate-buffered solution (PBS) at room temperature, then stored in PBS at 4° C. until staining and imaging. Embryos were placed in 10-20 ml droplets of primary antibody solution within plastic tissue culture dishes covered with mineral oil for 1 hour at room temperature, serially washed (×2) in PBS containing 0.01% Triton X-100 to prevent embryos sticking to oil, then transferred to 10-20 ml secondary antibody solution and Hoechst (dilution 1:500) for 30 minutes. Embryos were then serially washed (×2) and placed in 5 ml droplets of PBS with 0.5% serum albumin in uncoated glass bottom dishes (Mattek) covered with embryo culture oil for imaging. The following primary antibodies were used across experiments as described above: Oct-4, γH2AX, RPA32, RPA32 S4/S8, RPA32 S33, 53BP1, RAD51, Centromere, and phospho-CHK1. […] The appropriate secondary antibodies conjugated with Alexa Fluor 488, Alexa Fluor 555, CF 568, or Alexa Fluor 647 were diluted at 1:500-1:1000. Ethynyl deoxyuridine (EdU) labeling of zygotes and embryos was performed using the labeling kit (Thermo Fisher Scientific) as described by the manufacturer. 10 mM EdU was added to culture medium for 1 h at the indicated time points, and cells were harvested and fixed thereafter. 5-ethynyl uridine (EU) labeling was performed by incubating day3 cleavage stage embryos for 4 hours in Global total containing 0.2 mM EU.
(§3) Embryos were imaged with confocal microscopy using a Zeiss LSM (LSM 710) at a magnification of 63× and the Zeiss Zen software. Images were obtained using 488-, 543- and 633-nm lasers and bright-field microscopy. The number of confocal sections was adjusted to capture the entire nucleus or the entire embryo according to the experimental design as described above. Cell numbers and staining foci numbers were counted manually. Nuclei were identified by the presence of Hoechst33342. Foci were identified if at least 3× greater intensity than nuclear average, spherical in appearance, and overlapping with Hoechst33342 staining. Inner cell masses were identified by the presence of Oct4 within a blastocyst embryo. Active DNA replication was identified by the presence of EdU. DNA damage was identified by the detection of γH2AX and RPA foci within the nucleus. Mechanisms of DNA repair were identified through the detection of RPA S4/S8, RPA S33, Rad51 and 53BP1 foci within the nucleus.

The test system of assay [3] is mouse 2-cell embryos. Nature of the assay: single-cell sequencing chromosome content analysis, mouse 2-cell embryos. The assay is classed as cell-based. The following applies: mouse embryos, Wee1 kinase inhibitor added alongside aphidicolin. As to the method: as §1
Single cells from blastomeres were collected on the heated stage (Tokai Hit) of an Olympus IX71 inverted microscope equipped with Narishige micromanipulators and a zona pellucida laser (Hamilton-Thorne). Single nuclei were isolated from blastomeres by lysis and dissection of different nuclei using two […] diameter Piezo micropipettes and Holding pipette (Origio). Single embryo cells or nuclei were placed manually in single wells of a 96-well plate containing 9 ml of lysis buffer, prepared as a master mix of 798 ml H2O, 6 ml of 10 mg/mL Proteinase K solution (Sigma-Aldrich), and 96 ml 10× Single Cell Lysis and Fragmentation buffer (Sigma-Aldrich). Single cells/single nuclei were lysed by heating 96-well plates containing single cells/single nuclei at 50° C. for 1 hour, followed by incubation at 99° C. for four minutes using a PCR thermocycler. Single-cell/single-nuclei whole genome amplification (WGA) using degenerate oligo-nucleotide priming PCR (DOP-PCR) was performed using the SEQPLEX Enhanced DNA Amplification Kit (SEQXE, Sigma) according to the manufacturer's instructions. In addition, a modified version of the DOP-PCR protocol that allows inline indexing of WGA DNA was also applied. WGA DNA was subsequently processed for Illumina library sequencing preparation using standard TruSeq indexing methods via the NEBNext Ultra II DNA Library Prep Kit for Illumina (New England Biolabs). NEBNext Multiplex Oligos for Illumina (96 index primers) were used for four amplification cycles. Library DNA was quantified using Qubit dsDNA HS Assay Kit (Invitrogen, Carlsbad, CA, USA) and library size distribution was confirmed using a 2100 Bioanalyzer DNA 1000 Kit (Agilent, Santa Clara, CA, USA). A unimodal curve centered around 300-500 bp was scored as a successful library preparation. Subsequently, 30 mL of each pooled library was sent for sequencing at a concentration of 20 ng/ml. Mutiplex sequencing was performed using Illumina HiSeq 2500 single end indexed run (SR100) while targeting a coverage of approximately 1 million reads per cell/nuclei, sufficient for quantitative genome-wide copy number analysis.
Analysis of DNA sequencing data was performed as previously described (Baslan et al., 2015) with minor modifications as outlined below. Briefly, multiplex sequencing data were demultiplexed according to unique barcodes with reads assigned to their respective single-cell or single-nuclei. Unique reads were aligned to the reference human and mouse genome builds, hg19 and mm9, respectively. Each genome was partitioned into 5000 bins using a previously described algorithm (Varbin) that corrects for genome sequence mappability (Baslan et al., 2012; Navin et al., 2011). Uniquely mapped reads were sorted, indexed and subsequently counted within the partitioned genomic bins. For single-cell copy number inference, read count data were normalized genome-wide followed by CBS segmentation (Olshen et al., 2004) and transformed into integer copy number states using a least-squares fit approach (Baslan et al., 2015).

The subject of assay [4] is mouse embryos. Nature of the assay: mouse preimplantation development and embryo quality. The assay is classed as cell-based. As to the method:
as §1
(§4) Mouse oocytes were activated at 1-6 hours post retrieval using 2 mM ionomycin (Sigma Aldrich) in Global Total medium for 5 minutes at 37° C. followed by culture in 10 mM puromycin and 5 mg/ml cytochalasin B for 3 hours, then cytochalasinB only for 2 hours and 10 minutes to prevent second polar body extrusion.
as §2, with “phospho-CHK1. Phospho-specific antibodies were quality controlled through ATR dependence of foci formation in mouse zygotes, and for γH2AX also in human zygotes.” for “phospho-CHK1.”
as §3

Assay [5] relates to mouse 1-cell embryos. Briefly: timing of mitotic entry in mouse 1-cell embryos. The assay is classed as cell-based. The following applies: G2 phase mouse embryos, compared with untreated controls. As to the method:
as §1, §4

The subject of assay [6] is mouse zygotes. Briefly: DNA damage foci immunostaining in mouse zygotes/embryos. Conditions: mouse zygotes, mirin combined with aphidicolin. It counts as cell-based. As to the method:
as §1, §4
as §2, with “phospho-CHK1. Phospho-specific antibodies were quality controlled through ATR dependence of foci formation in mouse zygotes, and for γH2AX also in human zygotes.” for “phospho-CHK1.”
as §3

In assay [7] the test system is human embryos. Briefly: ethynyl uridine label incorporation in human embryos. It counts as cell-based. Conditions: incubation from days 1 to 3. As to the method:
as §1
(§5) Following the experimental exposures, mouse and human embryos were fixed in 2% paraformaldehyde (PFA) and 0.25% Triton X-100 in PBS for 10 minutes at room temperature, serially washed in phosphate-buffered solution (PBS) at room temperature, then stored in PBS at 4° C. until staining and imaging. Embryos were placed in 10-20 ml droplets of primary antibody solution within plastic tissue culture dishes covered with mineral oil for 1 hour at room temperature, serially washed (×2) in PBS containing 0.01% Triton X-100 to prevent embryos sticking to oil, then transferred to 10-20 ml secondary antibody solution and Hoechst (dilution 1:500) for 30 minutes. […]

Assay [8] relates to human embryos. Briefly: nucleation and development of human embryos. The assay is classed as cell-based. The following applies: 2PN zygotes incubated days 1 to 3, versus untreated cleavage-stage embryos.
Source text: Cryopreserved human cleavage-stage and blastocyst embryos and unfertilized oocytes were anonymously donated from individuals and couples who provided consent for use in research. Embryos were of good quality and had been cryopreserved for potential clinical use but were then no longer needed and donated for research. The cause of treatment is not disclosed. Range of maternal age of donated embryos is between 27-43. Embryos of both sexes were used, as provided by the unbiased fertilization of oocytes with sperm carrying either a Y or X chromosome. Cleavage stage embryos were thawed using the one-step thaw protocol using Global total with HEPES. Blastocyst stage embryos were thawed using the Quinn's Advantage thaw kit, then exposed to experimental conditions as outlined below. Vitrified embryos were thawed with the ECMPC warming solution set. Embryo culture was performed in Global Total. All experiments were conducted during incubation at 37° C. with 5% CO2 and 20% 02.
as §1
as §5, with “minutes. Embryos were then serially washed (×2) and placed in 5 ml droplets of PBS with 0.5% serum albumin in uncoated glass bottom dishes (Mattek) covered with embryo culture oil for imaging.” for “minutes.”
Embryos were imaged with confocal microscopy using a Zeiss LSM (LSM 710) at a magnification of 63× and the Zeiss Zen software. […] Cell numbers and staining foci numbers were counted manually. […]

Sequence of ATR (Q13535 whole entry): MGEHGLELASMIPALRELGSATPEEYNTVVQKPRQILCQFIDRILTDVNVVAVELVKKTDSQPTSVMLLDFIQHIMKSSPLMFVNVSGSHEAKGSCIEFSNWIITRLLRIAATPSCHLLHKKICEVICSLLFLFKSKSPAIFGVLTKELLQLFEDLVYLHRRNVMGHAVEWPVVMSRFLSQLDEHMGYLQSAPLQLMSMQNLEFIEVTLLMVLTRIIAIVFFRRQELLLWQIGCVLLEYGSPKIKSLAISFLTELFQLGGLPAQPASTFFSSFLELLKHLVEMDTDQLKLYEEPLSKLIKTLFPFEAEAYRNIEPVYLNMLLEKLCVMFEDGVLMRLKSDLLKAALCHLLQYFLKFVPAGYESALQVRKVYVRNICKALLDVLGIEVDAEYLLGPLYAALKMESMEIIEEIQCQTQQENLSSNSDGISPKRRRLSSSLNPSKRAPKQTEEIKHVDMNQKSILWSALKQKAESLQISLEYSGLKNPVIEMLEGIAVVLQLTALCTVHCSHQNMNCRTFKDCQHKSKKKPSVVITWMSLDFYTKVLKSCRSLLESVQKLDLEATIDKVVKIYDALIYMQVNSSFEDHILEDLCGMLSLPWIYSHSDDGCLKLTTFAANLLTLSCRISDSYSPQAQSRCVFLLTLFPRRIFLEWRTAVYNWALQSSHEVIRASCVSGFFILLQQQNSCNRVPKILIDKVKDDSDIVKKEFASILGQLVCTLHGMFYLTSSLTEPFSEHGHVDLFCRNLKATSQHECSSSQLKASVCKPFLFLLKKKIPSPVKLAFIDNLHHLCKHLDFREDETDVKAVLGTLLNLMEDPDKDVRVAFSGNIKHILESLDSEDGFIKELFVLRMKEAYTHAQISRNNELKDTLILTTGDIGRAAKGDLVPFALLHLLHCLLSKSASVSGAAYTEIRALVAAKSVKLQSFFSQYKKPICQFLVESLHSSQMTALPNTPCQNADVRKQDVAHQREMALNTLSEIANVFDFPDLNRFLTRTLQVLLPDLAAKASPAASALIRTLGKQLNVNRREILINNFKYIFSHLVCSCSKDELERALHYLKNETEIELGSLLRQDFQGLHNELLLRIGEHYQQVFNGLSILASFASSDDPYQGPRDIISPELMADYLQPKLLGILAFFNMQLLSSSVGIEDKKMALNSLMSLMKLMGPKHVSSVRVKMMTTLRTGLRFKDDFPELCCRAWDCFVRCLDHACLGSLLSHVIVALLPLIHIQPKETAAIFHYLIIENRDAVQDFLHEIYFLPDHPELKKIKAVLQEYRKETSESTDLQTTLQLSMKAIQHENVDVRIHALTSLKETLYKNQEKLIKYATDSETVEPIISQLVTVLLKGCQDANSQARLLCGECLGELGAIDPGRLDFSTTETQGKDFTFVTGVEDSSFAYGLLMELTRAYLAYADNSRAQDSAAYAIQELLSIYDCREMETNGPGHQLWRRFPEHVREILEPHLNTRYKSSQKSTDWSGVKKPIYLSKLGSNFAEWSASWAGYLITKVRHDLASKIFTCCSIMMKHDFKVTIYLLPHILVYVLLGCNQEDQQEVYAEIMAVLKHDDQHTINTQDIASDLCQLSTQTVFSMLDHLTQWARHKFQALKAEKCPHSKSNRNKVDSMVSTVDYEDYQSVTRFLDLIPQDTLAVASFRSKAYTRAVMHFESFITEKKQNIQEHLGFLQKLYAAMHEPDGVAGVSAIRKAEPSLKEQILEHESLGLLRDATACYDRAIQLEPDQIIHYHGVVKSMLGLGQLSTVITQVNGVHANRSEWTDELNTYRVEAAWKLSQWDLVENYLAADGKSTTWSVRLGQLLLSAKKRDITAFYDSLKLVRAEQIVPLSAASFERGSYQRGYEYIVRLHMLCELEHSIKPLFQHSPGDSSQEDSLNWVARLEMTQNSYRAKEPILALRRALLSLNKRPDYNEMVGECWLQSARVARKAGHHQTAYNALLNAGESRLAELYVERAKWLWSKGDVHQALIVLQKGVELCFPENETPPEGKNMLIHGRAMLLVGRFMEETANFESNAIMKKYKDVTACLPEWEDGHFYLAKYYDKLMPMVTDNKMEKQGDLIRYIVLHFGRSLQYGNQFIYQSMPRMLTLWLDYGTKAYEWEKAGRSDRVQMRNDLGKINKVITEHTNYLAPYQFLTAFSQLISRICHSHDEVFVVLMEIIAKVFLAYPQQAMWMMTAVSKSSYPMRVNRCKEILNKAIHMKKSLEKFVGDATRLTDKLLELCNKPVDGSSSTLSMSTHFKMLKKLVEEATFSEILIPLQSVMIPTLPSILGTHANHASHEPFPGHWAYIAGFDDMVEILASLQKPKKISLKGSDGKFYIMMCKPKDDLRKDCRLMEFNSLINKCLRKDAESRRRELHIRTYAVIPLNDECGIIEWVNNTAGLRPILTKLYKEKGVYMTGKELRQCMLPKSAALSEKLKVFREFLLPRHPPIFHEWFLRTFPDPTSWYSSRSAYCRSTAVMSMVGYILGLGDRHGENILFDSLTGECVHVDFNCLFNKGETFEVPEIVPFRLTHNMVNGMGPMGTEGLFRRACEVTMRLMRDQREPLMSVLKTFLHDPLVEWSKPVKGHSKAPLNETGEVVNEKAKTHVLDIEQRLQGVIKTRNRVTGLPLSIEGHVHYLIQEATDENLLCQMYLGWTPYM
Sequence of ATR (Q8WXE1 whole entry partner): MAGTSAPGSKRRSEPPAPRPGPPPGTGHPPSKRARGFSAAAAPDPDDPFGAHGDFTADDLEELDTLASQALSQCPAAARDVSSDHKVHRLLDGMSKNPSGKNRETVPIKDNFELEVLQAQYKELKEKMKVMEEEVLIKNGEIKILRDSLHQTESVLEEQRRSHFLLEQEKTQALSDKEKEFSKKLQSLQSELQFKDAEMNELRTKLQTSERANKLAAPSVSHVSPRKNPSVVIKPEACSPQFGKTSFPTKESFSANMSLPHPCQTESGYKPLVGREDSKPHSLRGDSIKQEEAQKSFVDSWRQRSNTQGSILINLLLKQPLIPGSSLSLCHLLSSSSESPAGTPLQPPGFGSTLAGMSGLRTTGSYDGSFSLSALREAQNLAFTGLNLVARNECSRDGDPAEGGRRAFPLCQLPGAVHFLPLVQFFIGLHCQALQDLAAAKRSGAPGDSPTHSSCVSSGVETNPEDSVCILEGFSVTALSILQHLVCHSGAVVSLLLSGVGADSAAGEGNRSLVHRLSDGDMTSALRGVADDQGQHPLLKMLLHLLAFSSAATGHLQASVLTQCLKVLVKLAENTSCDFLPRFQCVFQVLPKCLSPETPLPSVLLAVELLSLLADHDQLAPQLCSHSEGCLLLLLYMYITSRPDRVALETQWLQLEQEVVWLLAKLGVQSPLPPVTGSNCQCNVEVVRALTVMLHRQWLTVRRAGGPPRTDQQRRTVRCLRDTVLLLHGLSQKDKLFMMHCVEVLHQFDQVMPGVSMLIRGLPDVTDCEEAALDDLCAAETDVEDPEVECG

With `CS(=O)(=O)c1ccc(-c2cnc(N)c(C(=O)Nc3ccccc3)n2)cc1` [ATR45], in assay [1], the “selectivity over related kinases ATM or DNA-PK” value is listed as greater than 600 ×. Moreover, in assay [2] (parthenogenetically activated oocytes, inhibitor from 14-18 h into the first cell cycle, relative to controls), the “number of γH2AX foci” value is “reduced significantly”.
Take `C=CCn1c(=O)c2cnc(Nc3ccc(N4CCN(C)CC4)cc3)nc2n1-c1cccc(C(C)(C)O)n1` [Wee1 kinase inhibitor]: the genome after mitosis entry in assay [3] is “highly fragmented genome”. Further, the developmental potential entry in assay [4] (treatment in G2 phase, compared with untreated controls) is given as “impaired”. Moreover, in assay [5], the advance of mitosis amounted to 1.5 h.
As for `N=C1NC(=O)/C(=C/c2ccc(O)cc2)S1` [mirin], in assay [6], the “number of Rad51 foci” value is given as “more than 50” and the “number of foci marked by γH2AX” value is “more than 100”. For the same compound, the “number of RAD51 foci, average” value in assay [2] (human zygotes, combined exposure to aphidicolin and mirin) is reported as 50 sites.
As to `CC(C)[C@]12O[C@H]1[C@@H]1O[C@]13[C@]1(O[C@H]1C[C@H]1C4=C(CC[C@@]13C)C(=O)OC4)[C@@H]2O` [triptolide], in assay [7], the “embryos showing ethynyl uridine label incorporation” value is 0/4. Also, in assay [4] (in the presence of the inhibitor), the “mouse embryos developed beyond the two-cell stage” value is 0/15. In addition, the micronucleation result in assay [8] was “comparable”.
Turning to a-amanitin, the micronucleation entry in assay [8] was “comparable”.

These data come from patent US20250034520A1, “INCREASING DEVELOPMENTAL POTENTIAL OF HUMAN PREIMPLANTATION EMBRYOS BY REDUCING GENETIC INSTABILITY, ANEUPLOIDIES AND CHROMOSOMAL MOSAICISM” (THE TRUSTEES OF COLUMBIA UNIVERSITY IN THE CITY OF NEW YORK, priority 2022, published 2025).
